The values below come from patent EP3362444B1, “COMPOUNDS” (Exonate Limited, priority 2015, dated 2017).

Usually IC50 stands for the point on the concentration scale where inhibition reaches its midpoint. Lower therefore signals greater potency.

Structures are written as SMILES. Entries after “also recorded” stand apart in the source; their conditions may differ.

In experiment [1] the target is T1, SRPK1 (Homo sapiens, UniProt Q96SB4).
T1 construct: 0.1 µg of purified SRPK1 kinase
Description: In vitro kinase assay (Kinase-Glo), SRPK1 inhibition. The settings on record: for IC50: SRPK1 inhibition assay, 1 µM ATP, SRSF1 RS peptide, 30°C 10 minutes. In kind it is biochemical. How it is done:
Candidate compounds were tested for SRPK1 inhibition using a Kinase-Glo assay (Promega, Southampton, UK32). […] Candidate compounds were serially diluted from 10 µM to 0.5 nM and added to the reaction mixture, wells with omitted SRPK1 kinase and omitted compounds were also added as controls. All wells contained 1% DMSO (Fisher Scientific, Loughborough, UK). One micromolar ATP was added, wells minus ATP were used as background controls. The plate was then incubated at 30°C for 10 minutes. An equal volume of Kinase-Glo (25 µL; Promega) was added to each well and the plate read for luminescence using a Fluostar Optima (BMG Labtech) .
(Kinase-Glo measures the ATP left after a reaction by luminescence.)

Experiment [2] deals with T1, SRPK1. The experiment in a line: Differential scanning fluorimetry (DSF). As to conditions: higher ΔTm indicates higher affinity. In kind it is binding. How it is done:
Differential Scanning Fluorimetry was performed as described in Federov et al (2011). […]

Experiment [3] deals with primary RPE cells and ARPE-19 cells. The experiment in a line: qRT-PCR and conventional PCR of VEGF-A alternative splicing. In kind it is cell-based, human. The settings on record: Figures 8 and 9. An excerpt: Primary human retinal epithelial cells were lysed in Trizol reagent and mRNA was extracted using the method of Chomczynski and Sacchi, or using an RNeasy RNA extraction kit (Qiagen, UK). mRNA was reverse transcribed using Thermoscript reverse transcriptase (Fisher Scientific, UK). The cDNA was amplified using primers designed to amplify the region spanning the proximal and distal splice sites in human VEGF-A165a and VEGF-A165b, to amplify both isoforms and differentiate between them due to the fact that the exon 8b-containing isoform is 66-bp shorter than the exon 8a-containing isoform. The primers used were; 5'-[…]-3' (SEQ ID NO:2) and 5'-[…]-3' (SEQ ID NO:3) with the following conditions; 96°C for 2 min followed by 45 cycles at 96°C-30s, 60°C-30s and 72 °C -30 s. The PCR mix consisted of DNA: 200 ng, MgCl2 0.25 mM, Primer each 1 nM, Taq polymerase 1 unit and dH2O up to 25 µl. Control plasmid concentration: VEGF165a 500 ng and VEGF165b 1 µg. PCR products were run on 3% agarose gels containing 0.5 µg/ml ethidium bromide.
RNA was isolated and reverse transcribed as described above. Quantitative PCR (qPCR) was performed with a LightCycler 480 (Roche) q-PCR machine. The qPCR mix included PCR-grade dH2O 3 µl, PCR Primer (1 µM) 2 µl. […]
VEGF-A alternative splicing was further measured in retinal pigmented epithelial cells by qRT-PCR and conventional PCR.
For orientation: In qPCR the cycle at which signal appears reflects the starting amount.

The next experiment relates to laser-induced CNV. The experiment in a line: Laser-induced choroidal neovascularisation (CNV) model, topical eye drops. As to conditions: for anti-angiogenic efficacy as an eye drop (CNV lesion size): twice daily eye drops, compared with reference compound, Figures 4-7. In kind it is in vivo, C57/B6 mice. How it is done:
6-8 week-old female C57/B6 mice were anesthetized with an intraperitoneal injection of a mixture of 50 mg/kg ketamine and 0.5 mg/kg medetomidine. The pupils were immediately dilated by topical (eyedrop) application with a dilator such as 5% phenylephrine hydrochloride and 1% tropicamide. Four photocoagulation lesions were delivered with a green Merilas 532α laser (450 mW, 130 ms) between the "large" retinal vessels in clear space with no vessels in a peripapillary distribution at a distance of 1-2 disc-diameters in each eye. Only clean laser lesions with a subretinal bubble at the time of treatment were included in the study. Immediately following laser photocoagulation the animals were given topical eye drops of candidate compounds twice daily (10 µl, eyes held for 30 seconds to prevent animal wiping drop away).
After one week, mice were anesthetized with an intraperitoneal injection of a mixture of 50 mg/kg ketamine and 0.5 mg/kg medetomidine. The pupils were immediately dilated by topical (eyedrop) application with a dilator such as 5% phenylephrine hydrochloride and 1% tropicamide. Mice were administered an intraperitoneal injection of sodium fluorescein (10%). Phase contrast and green fluorescent fundus images were taken with an angiography microscope and camera with each lesion in focus. The mice were killed by a schedule 1 method and eyes were either unfixed for retinal dissection and protein extraction, or fixed and enucleated and choroids stained and examined.

The test system of experiment [4] is retinal pigmented epithelial cells. The experiment in a line: Isoform specific VEGF ELISA in retinal pigmented epithelial cells. In kind it is cell-based. As to conditions: relative to DMSO control; Figure 3. As to the method: 96-well clear microplate (high sensitivity thermo immulon or costar 9018) were coated with 100 µL of 10 µg/ml VEGFxxxb or 0.25 µg/ml anti-hVEGF165a per well. The plate was sealed with parafilm and incubated overnight on the shaker at room temp. Each well was aspirated and washed with Wash Buffer (200 µl PBS-Tween 0.05%), two times for a total of three washes. After the last wash, remaining Wash Buffer was removed by inverting the plate and blotting it against clean paper towels. Plates were blocked by adding 100 µl of Reagent Diluent (1%BSA/PBS) to each well and incubated at room temp on a shaker for 2 hours. The aspiration/wash step was repeated. 100 µL of standards or samples in 1% BSA/PBS were added to each well, covered with parafilm and incubated 2 hours at room temperature. The aspiration/wash was repeated and 100 µL of 100 ng/ml Detection Antibody (BAF293), diluted in Reagent Diluent, was added to each well which were covered with parafilm and incubated 2 hours at room temp. The aspiration/wash was repeated and 100 µL of the working dilution of Streptavidin-HRP (1:200 dilution) was added to each well. […] The optical density of each well was measured immediately, using a microplate reader set to 450 nm.
To determine whether these compounds could switch splicing of VEGF isoforms, VEGF was measured in retinal pigmented epithelial cells by isoform specific ELISA.
A general note: An ELISA detects its analyte on a solid surface through an enzyme-linked reagent.

T1 sequence (Q96SB4 whole entry): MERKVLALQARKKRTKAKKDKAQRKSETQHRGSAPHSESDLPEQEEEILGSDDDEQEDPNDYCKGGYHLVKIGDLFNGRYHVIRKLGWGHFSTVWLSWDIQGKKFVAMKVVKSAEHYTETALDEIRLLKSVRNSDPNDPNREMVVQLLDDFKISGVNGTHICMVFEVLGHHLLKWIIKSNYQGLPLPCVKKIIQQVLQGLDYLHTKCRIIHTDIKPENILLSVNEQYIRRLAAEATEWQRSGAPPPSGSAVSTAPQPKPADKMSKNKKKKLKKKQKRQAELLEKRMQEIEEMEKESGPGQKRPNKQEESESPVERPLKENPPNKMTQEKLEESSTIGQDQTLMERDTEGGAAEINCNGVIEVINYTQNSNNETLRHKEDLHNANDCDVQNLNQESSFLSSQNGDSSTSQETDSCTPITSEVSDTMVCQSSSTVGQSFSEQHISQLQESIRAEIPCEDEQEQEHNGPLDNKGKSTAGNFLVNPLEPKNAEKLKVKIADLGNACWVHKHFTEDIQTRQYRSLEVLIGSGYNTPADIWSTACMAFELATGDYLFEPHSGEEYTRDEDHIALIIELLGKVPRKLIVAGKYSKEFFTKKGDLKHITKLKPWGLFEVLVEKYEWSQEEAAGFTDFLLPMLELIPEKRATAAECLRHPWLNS

The compound `O=C(Nc1cc(C(F)(F)F)ccc1N1CCN(Cc2cscn2)CC1)c1ccc(C2CCOCC2)o1` [Compound 19, 5-(tetrahydro-2H-pyran-4-yl)-N-(2-(4-(thiazol-4-ylmethyl)piperazin-1-yl)-5-(trifluoromethyl)phenyl)furan-2-carboxamide] showed a half-inhibitory concentration (IC50) at SRPK1 [1] of 1.7 nM. Besides, the “DSF (ΔTm/°C)” value at SRPK1 [2] came to 18.03 °C.

The compound `O=C(Nc1cc(C(F)(F)F)ccc1N1CCN(Cc2cc[nH]n2)CC1)c1ccc(C2CCOCC2)o1` [Compound 14, N-(2-(4-((1H-pyrazol-3-yl)methyl)piperazin-1-yl)-5-(trifluoromethyl)-phenyl)-5-(tetrahydro-2H-pyran-4-yl)furan-2-carboxamide] came in with an IC50 against SRPK1 [1] of 3.5 nM. The “DSF (ΔTm/°C)” value at SRPK1 [2] was 17.36 °C. Further, the “levels of VEGF165b relative to VEGF165 RNA” value in experiment [3] is reported as “decrease VEGF-A165a/VEGF165b mRNA isoform expression; also recorded: decrease in VEGF165”.

Take `Cc1ccc(C(=O)Nc2cc(C(F)(F)F)ccc2N2CCN(Cc3cn(Cc4ccccc4)nn3)CC2)o1` [Compound 7, N-(2-(4-((1-benzyl-1H-1,2,3-triazol-4-yl)methyl)piperazin-1-yl)-5-(trifluoromethyl)phenyl)-5-methylfuran-2-carboxamide]: the IC50 on SRPK1 [1] was determined as 337 nM. At SRPK1 [2], the “DSF (ΔTm/°C)” value was 8.84 °C.

Take `O=C(Nc1cc(C(F)(F)F)ccc1N1CCN(Cc2ccco2)CC1)c1ccccn1` [Compound 28, N-(2-(4-(furan-2-ylmethyl)piperazin-1-yl)-5-(trifluoromethyl)phenyl)-picolinamide]: on SRPK1 [2], the “DSF (ΔTm/°C)” value worked out at 14.44 °C.

With `O=C(Nc1cc(C(F)(F)F)ccc1N1CCN(Cc2cocn2)CC1)c1ccc(-c2ccncc2)o1` [N-(2-(4-(oxazol-4-ylmethyl)piperazin-1-yl)-5-(trifluoromethy] [N-(2-(4-(oxazol-4-ylmethyl)piperazin-1-yl)-5-(trifluoromethyl)phenyl)-5-(pyridin-4-yl)furan-2-carboxamide], in the experiment on laser-induced CNV (eye drop), the “factor more effective than the known pazopanib-based eye drop treatment for AMD” value worked out at 10. The “anti-angiogenic efficacy as an eye drop (CNV lesion size)” value with laser-induced CNV is on record as “same efficacy”.

On SRPK1 [1], `O=C(Nc1cc(C(F)(F)F)ccc1N1CCN(Cc2cc[nH]n2)CC1)c1ccco1` [Compound 9, N-(2-(4-((1H-pyrazol-3-yl)methyl)piperazin-1-yl)-5-(trifluoromethyl)-phenyl)furan-2-carboxamide] yielded an IC50 of 62.4 nM. The “DSF (ΔTm/°C)” value at SRPK1 [2] turned out to be 11.64 °C.

As for `O=C(Nc1cc(C(F)(F)F)ccc1N1CCN(Cc2cocn2)CC1)c1ccc(-c2ccncc2)o1` [Compound 17, N-(2-(4-(oxazol-4-ylmethyl)piperazin-1-yl)-5-(trifluoromethyl)phenyl)-5-(pyridin-4-yl)furan-2-carboxamide], the “anti-angiogenic efficacy as an eye drop (CNV lesion size)” value with laser-induced CNV is “same anti-angiogenic activity on lesion size and the same efficacy as reference compounds”. For the same compound, the “VEGF165b and VEGF165 protein” value in experiment [4] is reported as “increase in VEGF165b, but not VEGF165 protein”.

With `Cc1ccc(C(=O)Nc2cc(C(F)(F)F)ccc2N2CCN(Cc3ccco3)CC2)o1` [Compound 8, 5-methyl-N-(2-(4-((furan-2-yl)methyl)piperazin-1-yl)-5-(trifluoromethyl)phenyl)furan-2-carboxamide], the midpoint of inhibition against SRPK1 [1], the IC50, lay at 17.6 nM. Further, the “potency against SRPK1 relative to analogous compounds in which R3 is a pyridyl ring” value at SRPK1 [1] (by kinase assay or differential scanning fluorimetry, Figures 1 and 2) is reported as “improved potency”. The “DSF (ΔTm/°C)” value at SRPK1 [2] is 15.95 °C.

Regarding `Cn1ccc(CN2CCN(c3ccc(C(F)(F)F)cc3NC(=O)c3ccco3)CC2)n1` [Compound 10, N-(2-(4-((1-methyl-1H-pyrazol-3-yl)methyl)piperazin-1-yl)-5-(trifluoromethyl)phenyl)furan-2-carboxamide], at SRPK1 [2], the “DSF (ΔTm/°C)” value was determined as 10.87 °C.

For `O=C(Nc1cc(Cl)ccc1N1CCN(Cc2ccco2)CC1)c1ccccn1` [Compound 29, N-(5-chloro-2-(4-(furan-2-ylmethyl)piperazin-1-yl)phenyl)picolinamide], at SRPK1 [2], the “DSF (ΔTm/°C)” value turned out to be 11.97 °C.

At SRPK1 [1], `O=C(Nc1cc(C(F)(F)F)ccc1N1CCN(Cc2cncs2)CC1)c1ccco1` [Compound 13, N-(2-(4-(thiazol-5-ylmethyl)piperazin-1-yl)-5-(trifluoromethyl)-phenyl)furan-2-carboxamide] yielded an IC50 of 39.5 nM. Besides, at SRPK1 [2], the “DSF (ΔTm/°C)” value was found to be 12.99 °C.

In the case of `O=C(Nc1cc(C(F)(F)F)ccc1N1CCN(Cc2cscn2)CC1)c1ccco1` [Compound 11, N-(2-(4-(thiazol-4-ylmethyl)piperazin-1-yl)-5-(trifluoromethyl)-phenyl)furan-2-carboxamide], at SRPK1 [2], the “DSF (ΔTm/°C)” value was found to be 12.94 °C.

As for `O=C(Nc1cc(C(F)(F)F)ccc1N1CCN(Cc2cocn2)CC1)c1cccc(C2CCOCC2)n1` [Compound 58, N-(2-(4-(oxazol-4-ylmethyl)piperazin-1-yl)-5-(trifluoromethyl)phenyl)-6-(tetrahydro-2H-pyran-4-yl)picolinamide], on SRPK1 [1], half-maximal inhibition (IC50) was put at 104 nM.
